In ChEMBL document CHEMBL1909046, “DrugMatrix in vitro pharmacology data”:

Tests used:
[1] = molecular target: Kappa-type opioid receptor (Homo sapiens, UniProt P41145); test: DRUGMATRIX: Opiate kappa (OP2, KOP) radioligand binding (ligand: [3H] Diprenorphine); type: cell membranes, HEK293, Membrane; settings: hek293; Not Active = under 50% inhibition at 10 µM
[2] = molecular target: T1, Amine oxidase [flavin-containing] A (Homo sapiens, UniProt P21397); test: DRUGMATRIX: Monoamine Oxidase MAO-A enzyme inhibition (substrate: Kynuramine); set-up: species or system BTI-TN-5B1-4; settings: bti-tn-5b1-4; Not Active = under 50% inhibition at 10 µM
T1 sequence (P21397 whole entry): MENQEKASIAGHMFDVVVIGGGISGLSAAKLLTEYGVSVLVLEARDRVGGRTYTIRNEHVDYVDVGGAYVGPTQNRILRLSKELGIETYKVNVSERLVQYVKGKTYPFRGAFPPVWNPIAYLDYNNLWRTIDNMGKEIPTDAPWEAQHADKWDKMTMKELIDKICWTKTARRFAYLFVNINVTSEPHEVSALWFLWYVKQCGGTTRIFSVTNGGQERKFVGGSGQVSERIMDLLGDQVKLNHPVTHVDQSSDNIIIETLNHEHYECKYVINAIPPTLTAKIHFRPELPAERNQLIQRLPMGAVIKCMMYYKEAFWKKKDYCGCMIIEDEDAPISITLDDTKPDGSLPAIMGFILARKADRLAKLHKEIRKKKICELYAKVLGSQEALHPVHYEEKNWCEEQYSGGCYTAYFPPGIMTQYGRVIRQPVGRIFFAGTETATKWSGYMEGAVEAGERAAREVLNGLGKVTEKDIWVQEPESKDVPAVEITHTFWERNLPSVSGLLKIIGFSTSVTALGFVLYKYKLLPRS

[3] = DRUGMATRIX: Phosphodiesterase PDE3 enzyme inhibition (substrate: [3H]cAMP + cAMP); type: tissue-based, Homo sapiens; settings: platelet, Not Active = under 50% inhibition at 10 µM
[4] = molecular target: T2, Thromboxane-A synthase (Homo sapiens, UniProt P24557); test: biochemical; type: tissue-based, Platelet; settings: platelet;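 note: enzyme inhibition assay with PGH2 supplied as substrate; in other assays of this panel Not Active means under 50% inhibition at 10 µM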
T2 sequence (P24557 whole entry): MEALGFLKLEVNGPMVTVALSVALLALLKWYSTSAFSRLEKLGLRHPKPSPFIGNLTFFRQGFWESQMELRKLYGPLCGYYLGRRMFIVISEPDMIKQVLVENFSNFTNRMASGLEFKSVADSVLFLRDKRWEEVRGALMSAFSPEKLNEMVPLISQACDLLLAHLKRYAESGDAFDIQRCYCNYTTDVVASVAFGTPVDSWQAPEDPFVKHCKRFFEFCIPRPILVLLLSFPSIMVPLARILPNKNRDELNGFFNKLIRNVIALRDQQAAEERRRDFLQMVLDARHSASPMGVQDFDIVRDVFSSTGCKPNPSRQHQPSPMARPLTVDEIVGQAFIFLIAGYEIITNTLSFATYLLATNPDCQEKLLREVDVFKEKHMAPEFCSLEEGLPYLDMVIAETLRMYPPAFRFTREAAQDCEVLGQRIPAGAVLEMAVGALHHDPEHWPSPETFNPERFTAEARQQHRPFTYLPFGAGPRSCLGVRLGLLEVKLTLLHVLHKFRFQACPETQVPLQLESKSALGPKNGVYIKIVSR

[5] = molecular target: Epidermal growth factor receptor (Homo sapiens, UniProt P00533); test: DRUGMATRIX: Protein Tyrosine Kinase, EGF Receptor enzyme inhibition (substrate: Poly(Glu:Tyr)); type: cell-based, Insect cells; settings: insect cells; Not Active = under 50% inhibition at 10 µM
[6] = molecular target: Cytochrome P450 2C9 (Homo sapiens, UniProt P11712); settings: bti-tn-5b1-4; note: in other assays of this panel Not Active means under 50% inhibition at 10 µM
[7] = molecular target: T3, B2 bradykinin receptor (Homo sapiens, UniProt P30411); type: cell membranes, Membrane; settings: chem-1; note: in other assays of this panel Not Active means under 50% inhibition at 10 µM
T3 sequence (P30411 whole entry): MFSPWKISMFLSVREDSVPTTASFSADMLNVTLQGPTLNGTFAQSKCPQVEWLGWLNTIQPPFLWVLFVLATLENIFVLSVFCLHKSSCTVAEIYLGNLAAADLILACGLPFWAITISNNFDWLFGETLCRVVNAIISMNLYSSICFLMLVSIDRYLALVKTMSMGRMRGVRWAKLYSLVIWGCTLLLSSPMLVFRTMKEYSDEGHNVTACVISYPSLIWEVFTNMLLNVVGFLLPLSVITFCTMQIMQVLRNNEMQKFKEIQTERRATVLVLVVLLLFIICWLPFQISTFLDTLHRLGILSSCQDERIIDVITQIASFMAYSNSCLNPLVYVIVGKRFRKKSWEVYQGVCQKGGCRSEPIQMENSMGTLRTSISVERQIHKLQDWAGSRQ

[8] = molecular target: T4, Type-2 angiotensin II receptor (Homo sapiens, UniProt P50052); type: cell-based; settings: cho-k1; note: in other assays of this panel Not Active means under 50% inhibition at 10 µM
T4 sequence (P50052 whole entry): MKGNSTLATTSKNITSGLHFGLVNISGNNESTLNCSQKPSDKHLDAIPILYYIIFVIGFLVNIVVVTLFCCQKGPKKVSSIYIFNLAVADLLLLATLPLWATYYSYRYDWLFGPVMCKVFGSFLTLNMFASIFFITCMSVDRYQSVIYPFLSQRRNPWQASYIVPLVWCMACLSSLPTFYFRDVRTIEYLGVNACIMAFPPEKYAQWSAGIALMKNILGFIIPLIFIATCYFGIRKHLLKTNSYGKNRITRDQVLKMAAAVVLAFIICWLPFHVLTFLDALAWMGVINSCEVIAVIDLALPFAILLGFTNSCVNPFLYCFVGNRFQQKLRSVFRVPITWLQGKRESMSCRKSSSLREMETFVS

[9] = molecular target: Carbonic anhydrase 2 (Homo sapiens, UniProt P00918); test: DRUGMATRIX: Carbonic Anhydrase II enzyme inhibition (substrate: 4-Nitrophenyl acetate (4-NPA)); type: tissue-based, Erythrocyte; settings: erythrocyte; Not Active = under 50% inhibition at 10 µM
[10] = molecular target: Sodium-dependent noradrenaline transporter (Homo sapiens, UniProt P23975); test: DRUGMATRIX: Norepinephrine Transporter radioligand binding (ligand: [125I] RTI-55); type: cell membranes, MDCK, Membrane; settings: mdck; Not Active = under 50% inhibition at 10 µM
[11] = molecular target: C-C chemokine receptor type 5 (Homo sapiens, UniProt P51681); type: cell membranes, Membrane; settings: hek293; note: in other assays of this panel Not Active means under 50% inhibition at 10 µM
[12] = molecular target: Protein kinase C alpha type (Homo sapiens, UniProt P17252); type: cell-based; settings: sf9
[13] = molecular target: Delta-type opioid receptor (Homo sapiens, UniProt P41143); type: cell membranes, HEK293, Membrane; settings: hek293; note: in other assays of this panel Not Active means under 50% inhibition at 10 µM
[14] = molecular target: Cannabinoid receptor 1 (Homo sapiens, UniProt P21554); type: cell membranes, Membrane; settings: chem-1; note: in other assays of this panel Not Active means under 50% inhibition at 10 µM
[15] = molecular target: Prostaglandin G/H synthase 1 (Homo sapiens, UniProt P23219); test: biochemical; type: tissue-based, Platelet
[16] = molecular target: Melanocortin receptor 5 (Homo sapiens, UniProt P33032); type: cell membranes, HEK293, Membrane; settings: hek293; note: in other assays of this panel Not Active means under 50% inhibition at 10 µM
Sequence of Melanocortin receptor 5 (P33032 whole entry): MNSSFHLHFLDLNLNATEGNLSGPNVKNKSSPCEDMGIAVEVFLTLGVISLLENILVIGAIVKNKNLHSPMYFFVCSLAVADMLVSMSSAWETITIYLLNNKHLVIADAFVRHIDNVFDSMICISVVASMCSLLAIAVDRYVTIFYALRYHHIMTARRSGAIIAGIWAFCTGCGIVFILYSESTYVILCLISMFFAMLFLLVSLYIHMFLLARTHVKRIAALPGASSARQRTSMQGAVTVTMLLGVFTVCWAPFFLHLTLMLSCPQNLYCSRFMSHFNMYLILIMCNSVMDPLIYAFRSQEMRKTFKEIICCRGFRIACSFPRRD

Sequence of Delta-type opioid receptor (P41143 whole entry): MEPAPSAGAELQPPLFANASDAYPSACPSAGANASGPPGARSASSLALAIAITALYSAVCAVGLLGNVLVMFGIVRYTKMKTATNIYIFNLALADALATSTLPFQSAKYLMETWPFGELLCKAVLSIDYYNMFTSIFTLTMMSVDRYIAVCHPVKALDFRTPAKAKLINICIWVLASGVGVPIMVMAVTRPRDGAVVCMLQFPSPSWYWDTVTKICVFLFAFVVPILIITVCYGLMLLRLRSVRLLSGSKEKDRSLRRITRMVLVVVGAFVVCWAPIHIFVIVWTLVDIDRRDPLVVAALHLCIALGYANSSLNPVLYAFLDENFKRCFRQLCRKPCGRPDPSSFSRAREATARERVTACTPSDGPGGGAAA
Sequence of C-C chemokine receptor type 5 (P51681 whole entry): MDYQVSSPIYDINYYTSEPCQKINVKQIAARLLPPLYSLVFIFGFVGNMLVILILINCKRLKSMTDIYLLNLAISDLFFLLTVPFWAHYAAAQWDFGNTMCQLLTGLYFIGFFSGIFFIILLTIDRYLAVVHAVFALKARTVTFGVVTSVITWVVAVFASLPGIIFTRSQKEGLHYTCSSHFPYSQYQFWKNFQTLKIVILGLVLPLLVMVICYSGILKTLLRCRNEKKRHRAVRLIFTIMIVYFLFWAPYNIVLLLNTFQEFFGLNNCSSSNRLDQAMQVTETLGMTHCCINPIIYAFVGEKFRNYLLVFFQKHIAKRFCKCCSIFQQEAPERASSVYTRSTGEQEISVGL
Sequence of Epidermal growth factor receptor (P00533 whole entry): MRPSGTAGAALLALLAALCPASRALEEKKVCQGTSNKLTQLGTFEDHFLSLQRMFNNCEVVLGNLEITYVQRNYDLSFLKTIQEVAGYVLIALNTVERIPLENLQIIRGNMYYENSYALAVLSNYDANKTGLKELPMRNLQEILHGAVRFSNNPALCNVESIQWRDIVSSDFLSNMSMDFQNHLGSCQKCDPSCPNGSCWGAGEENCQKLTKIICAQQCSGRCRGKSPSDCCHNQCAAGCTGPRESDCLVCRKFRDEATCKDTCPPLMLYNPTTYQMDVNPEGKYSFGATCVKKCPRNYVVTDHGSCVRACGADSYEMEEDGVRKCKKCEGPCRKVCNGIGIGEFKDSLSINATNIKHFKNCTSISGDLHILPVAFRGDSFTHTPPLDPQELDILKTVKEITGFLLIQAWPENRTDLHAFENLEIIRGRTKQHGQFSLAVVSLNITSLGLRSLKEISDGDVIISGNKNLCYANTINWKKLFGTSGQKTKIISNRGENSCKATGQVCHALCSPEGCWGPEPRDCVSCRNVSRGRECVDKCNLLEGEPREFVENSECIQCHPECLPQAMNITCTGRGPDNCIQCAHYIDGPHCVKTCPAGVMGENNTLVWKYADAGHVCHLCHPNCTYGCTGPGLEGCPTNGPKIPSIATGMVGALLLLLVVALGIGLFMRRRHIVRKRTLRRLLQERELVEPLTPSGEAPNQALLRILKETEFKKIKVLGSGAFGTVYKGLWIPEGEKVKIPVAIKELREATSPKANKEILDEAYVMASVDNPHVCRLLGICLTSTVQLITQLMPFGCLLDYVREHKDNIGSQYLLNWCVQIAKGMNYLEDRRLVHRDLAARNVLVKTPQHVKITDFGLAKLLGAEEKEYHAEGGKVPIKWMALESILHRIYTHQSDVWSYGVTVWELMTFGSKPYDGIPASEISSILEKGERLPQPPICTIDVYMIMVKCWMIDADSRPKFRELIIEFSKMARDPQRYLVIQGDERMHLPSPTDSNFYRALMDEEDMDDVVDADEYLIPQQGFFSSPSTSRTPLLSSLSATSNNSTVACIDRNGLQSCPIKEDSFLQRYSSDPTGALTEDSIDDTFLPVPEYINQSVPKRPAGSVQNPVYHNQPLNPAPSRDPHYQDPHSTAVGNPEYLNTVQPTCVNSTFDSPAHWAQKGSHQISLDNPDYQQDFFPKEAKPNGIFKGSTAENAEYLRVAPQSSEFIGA
Sequence of Sodium-dependent noradrenaline transporter (P23975 whole entry): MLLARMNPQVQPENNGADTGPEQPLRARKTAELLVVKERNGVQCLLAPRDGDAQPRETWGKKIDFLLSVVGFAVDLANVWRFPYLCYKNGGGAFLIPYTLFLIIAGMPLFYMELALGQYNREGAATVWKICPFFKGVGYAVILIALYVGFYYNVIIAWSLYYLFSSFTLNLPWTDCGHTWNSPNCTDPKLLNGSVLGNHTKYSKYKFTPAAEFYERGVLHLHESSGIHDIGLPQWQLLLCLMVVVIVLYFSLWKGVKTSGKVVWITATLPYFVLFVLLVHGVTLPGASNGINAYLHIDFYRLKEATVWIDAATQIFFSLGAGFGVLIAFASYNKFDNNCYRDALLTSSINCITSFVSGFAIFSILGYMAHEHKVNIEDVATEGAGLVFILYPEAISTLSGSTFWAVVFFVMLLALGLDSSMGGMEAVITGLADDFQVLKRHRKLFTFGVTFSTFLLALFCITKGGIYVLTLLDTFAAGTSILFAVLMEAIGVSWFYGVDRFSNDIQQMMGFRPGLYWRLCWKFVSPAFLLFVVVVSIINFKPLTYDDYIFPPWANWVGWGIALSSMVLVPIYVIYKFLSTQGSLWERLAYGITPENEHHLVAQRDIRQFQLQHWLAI
Sequence of Cannabinoid receptor 1 (P21554 whole entry): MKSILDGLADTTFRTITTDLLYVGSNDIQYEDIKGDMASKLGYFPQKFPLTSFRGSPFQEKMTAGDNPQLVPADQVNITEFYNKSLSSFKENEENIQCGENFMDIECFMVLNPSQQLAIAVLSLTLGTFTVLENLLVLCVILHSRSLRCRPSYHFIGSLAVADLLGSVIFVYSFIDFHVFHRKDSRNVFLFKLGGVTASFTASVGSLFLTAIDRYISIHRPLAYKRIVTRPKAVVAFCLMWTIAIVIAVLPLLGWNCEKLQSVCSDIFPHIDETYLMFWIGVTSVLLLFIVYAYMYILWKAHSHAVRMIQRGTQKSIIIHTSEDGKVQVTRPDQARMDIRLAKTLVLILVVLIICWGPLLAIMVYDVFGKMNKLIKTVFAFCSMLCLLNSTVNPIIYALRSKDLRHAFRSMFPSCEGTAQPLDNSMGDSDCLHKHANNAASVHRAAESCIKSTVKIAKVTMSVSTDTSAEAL
Sequence of Prostaglandin G/H synthase 1 (P23219 whole entry): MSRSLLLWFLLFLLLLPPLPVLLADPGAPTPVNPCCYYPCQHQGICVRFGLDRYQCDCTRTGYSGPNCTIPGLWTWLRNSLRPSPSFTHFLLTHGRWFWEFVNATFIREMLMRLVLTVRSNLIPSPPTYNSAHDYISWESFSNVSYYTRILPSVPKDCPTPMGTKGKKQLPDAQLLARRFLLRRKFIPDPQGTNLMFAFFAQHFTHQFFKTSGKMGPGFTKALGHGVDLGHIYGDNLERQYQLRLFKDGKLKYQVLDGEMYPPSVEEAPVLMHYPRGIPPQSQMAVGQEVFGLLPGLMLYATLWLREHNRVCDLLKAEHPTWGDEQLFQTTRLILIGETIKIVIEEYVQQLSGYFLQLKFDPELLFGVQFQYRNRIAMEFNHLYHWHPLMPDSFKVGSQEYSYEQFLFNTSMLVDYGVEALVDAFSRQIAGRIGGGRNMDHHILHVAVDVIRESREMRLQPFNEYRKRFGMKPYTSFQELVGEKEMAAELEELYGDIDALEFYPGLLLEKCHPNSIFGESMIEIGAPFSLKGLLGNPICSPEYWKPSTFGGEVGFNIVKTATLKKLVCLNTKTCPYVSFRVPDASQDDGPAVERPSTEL
Sequence of Kappa-type opioid receptor (P41145 whole entry): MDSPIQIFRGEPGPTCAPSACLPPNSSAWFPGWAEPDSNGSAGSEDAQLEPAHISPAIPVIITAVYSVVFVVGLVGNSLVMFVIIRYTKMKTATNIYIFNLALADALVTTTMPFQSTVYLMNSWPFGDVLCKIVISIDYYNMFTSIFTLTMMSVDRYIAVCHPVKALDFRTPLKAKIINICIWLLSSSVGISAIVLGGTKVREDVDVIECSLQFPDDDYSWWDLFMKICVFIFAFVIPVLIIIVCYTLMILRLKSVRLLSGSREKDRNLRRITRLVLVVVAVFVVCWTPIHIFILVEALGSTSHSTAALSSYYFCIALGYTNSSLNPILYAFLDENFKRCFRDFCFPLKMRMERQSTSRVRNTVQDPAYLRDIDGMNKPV

SMILES | IC50 [1] | IC50 [2] | IC50 [3] | Ki [3] | IC50 [4] | IC50 [5] | IC50 [6] | Ki [6] | IC50 [7] | IC50 [8] | IC50 [9] | IC50 [10] | IC50 [11] | IC50 [12] | IC50 [13] | IC50 [14] | IC50 ([15]; platelet) | IC50 [16] | other results
Brc1ccccc1 [BROMOBENZENE] | Not Active | Not Active | Not Active | Not Active | Not Active | Not Active | Not Active | Not Active | Not Active | Not Active | Not Active | Not Active | Not Active | Not Active | Not Active | Not Active | Not Active | Not Active | –
COc1ccc2cc(CC(=O)O)ccc2c1 | Not Active | Not Active | Not Active | Not Active | Not Active | Not Active | Not Active | Not Active | Not Active | Not Active | Not Active | Not Active | Not Active | Not Active | Not Active | Not Active | – | Not Active | IC50 ([15]; read-out: IC50): 4110 nM
CC[N+](CC)(CC)CCOc1cccc(OCC[N+](CC)(CC)CC)c1OCC[N+](CC)(CC)CC.[I-].[I-].[I-] [GALLAMINE TRIETHIODIDE] | Not Active | Not Active | Not Active | Not Active | Not Active | Not Active | Not Active | Not Active | Not Active | Not Active | Not Active | Not Active | Not Active | Not Active | Not Active | Not Active | Not Active | Not Active | –
CCCSc1ccc2nc(NC(=O)OC)[nH]c2c1 [ALBENDAZOLE] | Not Active | Not Active | Not Active | Not Active | Not Active | Not Active | Not Active | Not Active | Not Active | Not Active | Not Active | Not Active | Not Active | Not Active | Not Active | Not Active | Not Active | Not Active | –
OCc1ccccc1 [BENZYL ALCOHOL] | Not Active | Not Active | Not Active | Not Active | Not Active | – | Not Active | Not Active | Not Active | Not Active | Not Active | Not Active | Not Active | Not Active | Not Active | Not Active | Not Active | Not Active | Ki [5]: Not Active
CC(C)n1c(/C=C/C(O)CC(O)CC(=O)O)c(-c2ccc(F)cc2)c2ccccc21 (stereo not drawn) [FLUVASTATIN] | Not Active | Not Active | Not Active | Not Active | Not Active | Not Active | – | – | Not Active | Not Active | Not Active | Not Active | Not Active | Not Active | Not Active | Not Active | Not Active | Not Active | –
CCCCOC(=O)c1ccc(N)cc1 [BUTAMBEN] | Not Active | Not Active | Not Active | Not Active | Not Active | Not Active | – | – | Not Active | Not Active | Not Active | Not Active | Not Active | Not Active | Not Active | Not Active | Not Active | Not Active | –
NCC(=O)O [GLYCINE] | Not Active | Not Active | Not Active | Not Active | Not Active | Not Active | – | – | Not Active | Not Active | Not Active | Not Active | Not Active | Not Active | Not Active | Not Active | Not Active | Not Active | –
O=C1CCc2cc(OCCCCc3nnnn3C3CCCCC3)ccc2N1 [CILOSTAZOL] | Not Active | Not Active | – | – | Not Active | Not Active | – | – | Not Active | Not Active | Not Active | Not Active | Not Active | Not Active | Not Active | Not Active | Not Active | Not Active | IC50 ([3]; read-out: IC50): 271 nM
